Key:
[1] = Inhibition of Human influenza virus A/PR/8/34 (H1N1) hemagglutininin activity in chicken erythrocytes after 1 hr
[2] = Inhibition of Human influenza virus A/Aichi/2/68 (H3N2) hemagglutininin activity in chicken erythrocytes after 1 hr

Row | Compound | IC50 [1] | IC50 [2]
1 | C=CC(=O)N[C@H]1[C@H]([C@H](O)[C@H](O)CO)O[C@@](SCCCCCCCCCCCC)(C(=O)O)C[C@@H]1O | 7.81 µM | 3.9 µM
2 | C=CC(=O)N[C@H]1[C@H]([C@H](O)[C@H](O)CO)OC(O)(C(=O)O)C[C@@H]1O (stereo partly specified) | > 250 µM | > 250 µM
3 | C=CC(=O)NCCCCCC(=O)N[C@H]1[C@H]([C@H](O)[C@H](O)CO)O[C@@](SCCCCCCCCCCCC)(C(=O)O)C[C@@H]1O | 7.81 µM | 7.81 µM
